Data published in patent US20260306638A1, “COMPOUNDS AND USES THEREOF” (FOGHORN THERAPEUTICS INC., priority 2023, published 2026).

Assays:
HiBit-BRM fusion protein = molecular target: T1, HiBit-BRM fusion protein (Homo sapiens, UniProt P51531); assay: HiBiT-BRM degradation in a stable HeLa cell line (cell-based degradation assay, Nano-Glo HiBiT Lytic Detection); details: HeLa cells, 24 h; for Dmax: human, 30 μM top dose, read-out: BRM HiBit Degradation Maximum
T1 construct: HiBiT; expressed in transfected cells
Procedure: (§1) Procedure: A stable HeLa cell line expressing HiBiT-BRM was generated. On day 0, 5000 cells were seeded in 40 μL of media into each well of 384-well cell culture plates. On day 1, cells were treated with 120 nL DMSO or 120 nL of 3-fold serially DMSO-diluted compounds (10 points in duplicate with 30 µM as final top dose). Subsequently plates were incubated for 24 h in a standard tissue culture incubator and equilibrated at room temperature for 15 minutes. Nano-Glo HiBiT Lytic Detection System (Promega N3050) reagent was freshly prepared and 20 μl was added to each well. Upon addition of this LgBit-containing reagent, the HiBIT and LgBiT proteins associate to form the luminescent NanoBiT luciferase. The plates were shaken for 10 minutes at room temperature and the bioluminescence read using an En Vision plate reader (PerkinElmer).
(§2) The degradation % was calculated using the following formula: % degradation=100%−100%×(Lumsample−LumLC)/(LumHC−LumLC). DMSO treated cells are employed as High Control (HC) and 2 μM of a known BRM/BRG1 degrader standard treated cells are employed as Low Control (LC).

[1] = molecular target: T2, HiBit-BRG1 fusion protein (Homo sapiens, UniProt P51532); assay: HiBit-BRG1 degradation in a stable HeLa cell line expressing HiBit-BRG1 and LgBit (cell-based degradation assay); details: HeLa cells, 24 h; for Dmax: human, 30 μM top dose, read-out: BRG1 HiBit Degradation Maximum
T2 construct: HiBiT; expressed in transfected cells
Procedure: as §1
For measurement of BRG1 degradation, a stable HeLa cell line expressing HiBit-BRG1 and LgBit was generated. The same protocol as above was then followed.
as §2

T2 sequence (P51532 whole entry, the tested form may be a part): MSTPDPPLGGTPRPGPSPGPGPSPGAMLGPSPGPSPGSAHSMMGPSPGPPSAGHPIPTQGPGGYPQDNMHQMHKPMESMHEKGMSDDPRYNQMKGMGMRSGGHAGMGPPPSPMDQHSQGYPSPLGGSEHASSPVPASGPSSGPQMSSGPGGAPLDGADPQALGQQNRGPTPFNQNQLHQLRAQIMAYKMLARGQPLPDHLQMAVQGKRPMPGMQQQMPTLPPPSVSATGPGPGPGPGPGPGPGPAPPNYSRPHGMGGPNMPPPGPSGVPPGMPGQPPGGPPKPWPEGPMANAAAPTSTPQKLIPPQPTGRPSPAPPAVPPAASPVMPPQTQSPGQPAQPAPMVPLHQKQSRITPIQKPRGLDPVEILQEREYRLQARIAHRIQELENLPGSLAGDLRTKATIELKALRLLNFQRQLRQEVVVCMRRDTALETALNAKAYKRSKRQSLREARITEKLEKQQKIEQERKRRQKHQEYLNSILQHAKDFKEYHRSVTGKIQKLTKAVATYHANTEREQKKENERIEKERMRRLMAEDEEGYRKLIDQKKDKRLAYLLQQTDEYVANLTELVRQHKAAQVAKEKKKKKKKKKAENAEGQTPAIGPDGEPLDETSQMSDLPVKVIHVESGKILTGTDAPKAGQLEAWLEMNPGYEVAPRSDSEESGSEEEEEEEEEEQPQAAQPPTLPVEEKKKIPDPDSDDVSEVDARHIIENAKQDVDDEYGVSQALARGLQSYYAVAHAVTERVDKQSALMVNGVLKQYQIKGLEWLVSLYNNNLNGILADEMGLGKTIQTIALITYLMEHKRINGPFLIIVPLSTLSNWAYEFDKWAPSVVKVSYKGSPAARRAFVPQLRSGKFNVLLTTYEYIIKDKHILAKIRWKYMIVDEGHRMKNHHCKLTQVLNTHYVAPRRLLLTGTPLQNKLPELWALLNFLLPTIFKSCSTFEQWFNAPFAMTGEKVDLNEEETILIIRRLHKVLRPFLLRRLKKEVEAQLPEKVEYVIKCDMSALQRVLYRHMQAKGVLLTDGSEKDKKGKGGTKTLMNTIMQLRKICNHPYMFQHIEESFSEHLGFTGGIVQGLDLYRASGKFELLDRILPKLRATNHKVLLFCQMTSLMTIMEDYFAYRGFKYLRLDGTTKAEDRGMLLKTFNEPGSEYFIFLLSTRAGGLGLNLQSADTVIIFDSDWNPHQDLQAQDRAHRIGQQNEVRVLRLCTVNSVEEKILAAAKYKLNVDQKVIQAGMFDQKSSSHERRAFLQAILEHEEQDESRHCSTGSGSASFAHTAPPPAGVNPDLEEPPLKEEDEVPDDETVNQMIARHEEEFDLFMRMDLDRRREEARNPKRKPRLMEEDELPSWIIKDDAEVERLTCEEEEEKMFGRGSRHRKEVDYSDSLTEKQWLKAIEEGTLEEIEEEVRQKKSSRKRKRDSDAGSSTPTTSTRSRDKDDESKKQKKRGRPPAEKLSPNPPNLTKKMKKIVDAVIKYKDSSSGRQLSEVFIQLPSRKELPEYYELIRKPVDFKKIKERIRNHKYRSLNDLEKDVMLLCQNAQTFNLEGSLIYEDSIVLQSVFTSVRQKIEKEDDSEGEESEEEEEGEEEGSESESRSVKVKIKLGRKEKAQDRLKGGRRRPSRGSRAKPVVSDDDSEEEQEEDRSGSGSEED
T1 sequence (P51531 whole entry, the tested form may be a part): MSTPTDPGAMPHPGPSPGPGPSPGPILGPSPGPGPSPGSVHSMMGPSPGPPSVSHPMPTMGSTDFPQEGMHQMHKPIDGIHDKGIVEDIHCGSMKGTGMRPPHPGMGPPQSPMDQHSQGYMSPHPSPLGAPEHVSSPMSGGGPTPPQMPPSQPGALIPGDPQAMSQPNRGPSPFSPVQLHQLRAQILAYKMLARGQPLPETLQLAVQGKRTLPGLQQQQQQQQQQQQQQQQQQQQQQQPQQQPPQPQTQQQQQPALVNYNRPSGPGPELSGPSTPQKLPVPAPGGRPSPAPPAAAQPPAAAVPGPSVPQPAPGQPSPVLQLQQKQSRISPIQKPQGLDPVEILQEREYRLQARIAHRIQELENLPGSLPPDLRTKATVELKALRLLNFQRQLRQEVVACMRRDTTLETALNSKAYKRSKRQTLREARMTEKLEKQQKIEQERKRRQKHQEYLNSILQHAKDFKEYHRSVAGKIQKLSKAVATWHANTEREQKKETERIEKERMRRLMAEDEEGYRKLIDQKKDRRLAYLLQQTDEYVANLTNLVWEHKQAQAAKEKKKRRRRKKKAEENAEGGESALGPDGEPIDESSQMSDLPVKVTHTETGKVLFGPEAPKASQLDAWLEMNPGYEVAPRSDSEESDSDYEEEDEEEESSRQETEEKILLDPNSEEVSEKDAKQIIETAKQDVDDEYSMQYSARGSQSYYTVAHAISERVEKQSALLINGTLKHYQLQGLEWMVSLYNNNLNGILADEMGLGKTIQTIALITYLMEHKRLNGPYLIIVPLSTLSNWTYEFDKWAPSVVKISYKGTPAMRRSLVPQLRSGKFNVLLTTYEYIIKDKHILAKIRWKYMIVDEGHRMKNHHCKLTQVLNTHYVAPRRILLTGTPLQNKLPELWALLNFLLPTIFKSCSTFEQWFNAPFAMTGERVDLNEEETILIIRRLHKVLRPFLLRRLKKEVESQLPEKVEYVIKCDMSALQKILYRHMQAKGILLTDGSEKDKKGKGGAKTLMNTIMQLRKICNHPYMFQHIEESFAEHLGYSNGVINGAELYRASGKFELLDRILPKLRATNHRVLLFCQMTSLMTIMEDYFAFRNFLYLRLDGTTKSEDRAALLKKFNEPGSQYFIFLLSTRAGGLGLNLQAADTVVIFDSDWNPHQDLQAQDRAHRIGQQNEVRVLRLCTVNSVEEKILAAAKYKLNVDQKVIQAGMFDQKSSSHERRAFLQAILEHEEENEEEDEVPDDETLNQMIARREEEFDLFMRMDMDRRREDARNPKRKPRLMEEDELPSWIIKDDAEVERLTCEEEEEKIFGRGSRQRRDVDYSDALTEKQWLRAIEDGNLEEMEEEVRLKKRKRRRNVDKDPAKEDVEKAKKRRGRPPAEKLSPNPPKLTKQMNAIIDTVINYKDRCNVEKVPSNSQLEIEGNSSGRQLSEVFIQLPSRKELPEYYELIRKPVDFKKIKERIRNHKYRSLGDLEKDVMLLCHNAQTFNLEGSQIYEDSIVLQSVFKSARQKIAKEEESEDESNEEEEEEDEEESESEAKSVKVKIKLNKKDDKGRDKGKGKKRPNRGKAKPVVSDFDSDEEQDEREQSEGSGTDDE

DC50 (HiBit-BRM fusion protein) | Dmax (HiBit-BRM fusion protein) | Dmax [1] | DC50 ([1]; read-out: BRMG1 HiBit Degradation DC50) | Structure (SMILES)
< 10 nM | ≥ 75% | < 50% | – | Cc1ncsc1-c1ccc([C@H](C)NC(=O)[C@@H]2C[C@@H](O)CN2C(=O)[C@@H](c2cc(N3CC4(C3)CN(c3ccc5nnc(-c6ccccc6O)cc5n3)C4)no2)C(C)C)cc1 [Compound 1, (2S,4R)-4-hydroxy-1-[(2R)-2-(3-{6-[3-(2-hydroxyphenyl)pyrido[3,2-c]pyridazin-6-yl]-2,6-diazaspiro[3.3]heptan-2-yl}-1,2-oxazol-5-yl)-3-methylbutanoyl]-N-[(1S)-1-[4-(4-methyl-1,3-thiazol-5-yl)phenyl]ethyl]pyrrolidine-2-carboxamide]
< 10 nM | ≥ 75% | < 50% | – | Cc1nc2cc(-c3ccccc3O)nnc2cc1N1CC2(CN(c3cc([C@H](C(=O)N4C[C@H](O)C[C@H]4C(=O)N[C@@H](C)c4ccc(-c5scnc5C)cc4)C(C)C)on3)C2)C1 [Compound 3, (2S,4R)-4-hydroxy-1-[(2R)-2-(3-{6-[3-(2-hydroxyphenyl)-6-methylpyrido[3,2-c]pyridazin-7-yl]-2,6-diazaspiro[3.3]heptan-2-yl}-1,2-oxazol-5-yl)-3-methylbutanoyl]-N-[(1S)-1-[4-(4-methyl-1,3-thiazol-5-yl)phenyl]ethyl]pyrrolidine-2-carboxamide]
< 10 nM | ≥ 75% | < 50% | – | Cc1ncsc1-c1ccc([C@H](C)NC(=O)[C@@H]2C[C@@H](O)CN2C(=O)[C@@H](c2cc(N3CC4(C3)CN(c3cc5nnc(-c6ccccc6O)cc5n(C)c3=O)C4)no2)C(C)C)cc1 (single isomer, unassigned) [Compound 4]
< 10 nM | ≥ 75% | ≥ 75% | < 10 nM | Cc1ncsc1-c1ccc([C@H](C)NC(=O)[C@@H]2C[C@@H](O)CN2C(=O)[C@H](C(C)C)n2cc(-c3ccc4nnc(-c5ccccc5O)cc4n3)nn2)cc1 [Compound 2, (2S,4R)-4-hydroxy-1-[(2S)-2-{4-[3-(2-hydroxyphenyl)pyrido[3,2-c]pyridazin-6-yl]-1,2,3-triazol-1-yl}-3-methylbutanoyl]-N-[(1S)-1-[4-(4-methyl-1,3-thiazol-5-yl)phenyl]ethyl]pyrrolidine-2-carboxamide]
